Measurements reported in ChEMBL document CHEMBL1143351 (J Med Chem, 2009).

Assays:
[1] = target: Nitric oxide synthase 1 (Rattus norvegicus, UniProt P29476)
Description: Inhibition of rat recombinant nNOS expressed in Escherichia coli by hemoglobin capture assay

[2] = target: T1, Nitric oxide synthase 3 (Bos taurus, UniProt P29473)
T1 sequence (P29473 whole entry): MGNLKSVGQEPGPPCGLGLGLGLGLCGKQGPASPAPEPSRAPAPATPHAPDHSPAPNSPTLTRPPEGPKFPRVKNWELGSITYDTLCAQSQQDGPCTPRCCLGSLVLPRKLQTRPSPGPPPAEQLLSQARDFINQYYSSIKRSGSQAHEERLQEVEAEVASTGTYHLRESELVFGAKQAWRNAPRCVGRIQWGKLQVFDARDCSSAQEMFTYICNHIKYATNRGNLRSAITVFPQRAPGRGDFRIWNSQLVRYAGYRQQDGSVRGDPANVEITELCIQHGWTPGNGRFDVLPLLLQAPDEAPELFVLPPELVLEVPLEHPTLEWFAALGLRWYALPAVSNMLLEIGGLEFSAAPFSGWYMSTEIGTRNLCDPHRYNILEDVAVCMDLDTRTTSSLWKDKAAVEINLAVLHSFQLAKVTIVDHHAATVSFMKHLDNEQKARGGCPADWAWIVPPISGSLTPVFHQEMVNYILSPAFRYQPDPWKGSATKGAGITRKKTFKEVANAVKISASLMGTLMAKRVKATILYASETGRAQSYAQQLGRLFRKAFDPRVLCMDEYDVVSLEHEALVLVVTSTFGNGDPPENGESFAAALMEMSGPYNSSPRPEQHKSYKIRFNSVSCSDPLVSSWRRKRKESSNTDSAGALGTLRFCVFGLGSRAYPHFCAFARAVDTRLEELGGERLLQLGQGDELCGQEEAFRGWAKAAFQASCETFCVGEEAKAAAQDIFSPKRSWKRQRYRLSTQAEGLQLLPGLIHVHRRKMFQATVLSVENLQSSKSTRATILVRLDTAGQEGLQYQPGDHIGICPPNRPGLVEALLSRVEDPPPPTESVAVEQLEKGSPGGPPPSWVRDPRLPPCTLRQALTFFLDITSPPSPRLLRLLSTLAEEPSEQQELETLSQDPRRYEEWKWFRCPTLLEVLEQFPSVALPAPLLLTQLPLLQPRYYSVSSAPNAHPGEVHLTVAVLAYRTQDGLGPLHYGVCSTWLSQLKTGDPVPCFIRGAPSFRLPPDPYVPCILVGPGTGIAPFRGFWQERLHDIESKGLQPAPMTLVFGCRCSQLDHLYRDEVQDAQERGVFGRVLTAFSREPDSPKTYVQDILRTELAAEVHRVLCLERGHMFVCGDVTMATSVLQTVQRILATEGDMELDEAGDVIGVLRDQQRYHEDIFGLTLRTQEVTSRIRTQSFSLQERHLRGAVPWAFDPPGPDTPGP
Description: Inhibition of bovine recombinant eNOS expressed in Escherichia coli by hemoglobin capture assay

[3] = target: T2, Nitric oxide synthase, inducible (Mus musculus, UniProt P29477)
T2 sequence (P29477 whole entry): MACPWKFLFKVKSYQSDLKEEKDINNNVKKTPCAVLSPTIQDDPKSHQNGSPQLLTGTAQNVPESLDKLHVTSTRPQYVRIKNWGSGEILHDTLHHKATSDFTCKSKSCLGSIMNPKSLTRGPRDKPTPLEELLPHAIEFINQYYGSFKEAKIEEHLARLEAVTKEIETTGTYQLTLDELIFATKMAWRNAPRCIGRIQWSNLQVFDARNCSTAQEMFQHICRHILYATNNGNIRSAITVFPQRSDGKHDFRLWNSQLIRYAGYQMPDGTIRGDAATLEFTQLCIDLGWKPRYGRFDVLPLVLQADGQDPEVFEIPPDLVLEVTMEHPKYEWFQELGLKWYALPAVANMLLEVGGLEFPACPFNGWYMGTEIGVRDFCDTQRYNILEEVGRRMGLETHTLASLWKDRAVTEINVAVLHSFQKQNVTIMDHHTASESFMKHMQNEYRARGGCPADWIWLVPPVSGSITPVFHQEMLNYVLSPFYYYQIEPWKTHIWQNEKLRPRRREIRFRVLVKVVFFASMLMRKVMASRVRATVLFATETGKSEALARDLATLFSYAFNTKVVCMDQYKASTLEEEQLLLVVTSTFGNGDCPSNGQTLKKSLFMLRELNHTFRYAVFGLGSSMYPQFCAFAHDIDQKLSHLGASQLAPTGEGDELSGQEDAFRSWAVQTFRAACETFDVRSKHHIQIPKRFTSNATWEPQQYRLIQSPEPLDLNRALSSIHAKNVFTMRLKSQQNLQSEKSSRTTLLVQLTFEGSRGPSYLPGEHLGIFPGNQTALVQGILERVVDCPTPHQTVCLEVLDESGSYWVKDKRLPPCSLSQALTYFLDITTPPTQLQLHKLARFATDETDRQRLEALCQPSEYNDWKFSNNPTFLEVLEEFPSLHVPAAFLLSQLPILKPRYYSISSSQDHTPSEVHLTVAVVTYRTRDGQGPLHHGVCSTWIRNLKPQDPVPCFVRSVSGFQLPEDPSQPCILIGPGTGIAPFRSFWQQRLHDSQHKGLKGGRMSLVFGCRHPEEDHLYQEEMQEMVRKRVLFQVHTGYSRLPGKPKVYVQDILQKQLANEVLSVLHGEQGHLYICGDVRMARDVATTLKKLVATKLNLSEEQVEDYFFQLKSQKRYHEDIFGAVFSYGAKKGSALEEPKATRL
Description: Inhibition of mouse recombinant iNOS expressed in Escherichia coli by hemoglobin capture assay

Sequence of Nitric oxide synthase 1 (P29476 whole entry): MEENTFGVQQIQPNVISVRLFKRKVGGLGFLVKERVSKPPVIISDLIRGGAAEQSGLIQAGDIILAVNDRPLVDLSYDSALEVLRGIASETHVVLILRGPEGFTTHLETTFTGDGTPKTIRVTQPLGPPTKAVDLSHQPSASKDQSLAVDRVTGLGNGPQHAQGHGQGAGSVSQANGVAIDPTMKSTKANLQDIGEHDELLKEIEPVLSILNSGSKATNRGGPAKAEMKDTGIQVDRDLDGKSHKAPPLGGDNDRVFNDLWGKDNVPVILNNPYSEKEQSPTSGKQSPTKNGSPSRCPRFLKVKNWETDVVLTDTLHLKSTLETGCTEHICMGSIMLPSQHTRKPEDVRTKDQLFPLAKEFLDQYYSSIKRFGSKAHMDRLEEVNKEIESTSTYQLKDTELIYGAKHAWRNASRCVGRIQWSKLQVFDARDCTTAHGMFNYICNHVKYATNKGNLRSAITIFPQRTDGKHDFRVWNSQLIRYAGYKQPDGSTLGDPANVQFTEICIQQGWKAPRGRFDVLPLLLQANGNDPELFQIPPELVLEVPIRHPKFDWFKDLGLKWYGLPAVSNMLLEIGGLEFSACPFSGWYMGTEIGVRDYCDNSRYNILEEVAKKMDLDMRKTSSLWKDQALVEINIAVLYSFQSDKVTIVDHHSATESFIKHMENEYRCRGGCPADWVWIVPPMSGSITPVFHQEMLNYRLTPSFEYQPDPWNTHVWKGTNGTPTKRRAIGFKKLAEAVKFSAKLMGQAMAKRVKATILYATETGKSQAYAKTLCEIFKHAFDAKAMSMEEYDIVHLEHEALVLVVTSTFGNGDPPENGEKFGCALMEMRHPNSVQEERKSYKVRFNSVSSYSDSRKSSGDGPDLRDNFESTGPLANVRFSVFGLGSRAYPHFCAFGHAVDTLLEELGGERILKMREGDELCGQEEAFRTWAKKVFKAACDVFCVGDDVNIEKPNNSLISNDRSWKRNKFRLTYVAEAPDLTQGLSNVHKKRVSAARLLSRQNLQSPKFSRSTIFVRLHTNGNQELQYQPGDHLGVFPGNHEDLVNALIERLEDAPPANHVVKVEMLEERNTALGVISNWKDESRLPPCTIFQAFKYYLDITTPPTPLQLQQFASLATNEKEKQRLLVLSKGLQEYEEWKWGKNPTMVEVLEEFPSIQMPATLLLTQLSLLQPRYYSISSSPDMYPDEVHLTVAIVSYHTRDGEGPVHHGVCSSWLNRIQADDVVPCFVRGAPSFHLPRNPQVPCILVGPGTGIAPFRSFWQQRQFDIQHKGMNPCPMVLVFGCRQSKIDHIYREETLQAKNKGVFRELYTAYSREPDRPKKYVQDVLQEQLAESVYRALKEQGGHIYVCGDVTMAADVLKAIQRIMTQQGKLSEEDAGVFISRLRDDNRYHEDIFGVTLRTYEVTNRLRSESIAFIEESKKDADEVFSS

Structure (SMILES)	Ki [1] [µM]	Ki [2] [µM]	Ki [3] [µM]
CC(=O)[C@@H]1C[C@@H](NC(=O)[C@@H](N)CCCNC(=N)N[N+](=O)[O-])CN1	0.1	128	29
CC(=O)[C@H]1CNC[C@@H]1NC(=O)[C@@H](N)CCCNC(=N)N[N+](=O)[O-]	0.087	200	5.76
Nc1cccc(C[C@H]2CNC[C@H]2N[C@@H]2CCNC2)n1 (racemic)	1.36	424	200
Nc1cccc(C[C@H]2CNC[C@H]2N[C@@H]2CCN(Cc3ccccc3)C2)n1 (racemic)	2.74	181	425
Nc1cccc(C[C@H]2CNC[C@H]2N[C@H]2CCN(Cc3ccccc3)C2)n1 (racemic)	3.34	108	222
Cc1cc(N)nc(C[C@H]2CNC[C@H]2NCCNCc2cccc(C(F)(F)F)c2)c1 (racemic)	0.206	–	–
Cc1cccc(CNCCN[C@@H]2CNC[C@@H]2Cc2cc(C)cc(N)n2)c1 (racemic)	0.159	72	9.01
Cc1cc(N)nc(C[C@H]2CNC[C@H]2NCCNCc2ccc(Cl)c(Cl)c2)c1 (racemic)	0.157	41	3.56
Cc1cc(N)nc(C[C@H]2CNC[C@H]2NCCNCc2ccc(Cl)cc2Cl)c1 (racemic)	0.11	30	7.7
Cc1cc(N)nc(C[C@H]2CNC[C@H]2NC[C@H](C)NCc2ccc(Cl)cc2)c1 (racemic)	0.136	40	12.2
Cc1cc(N)nc(C[C@H]2CNC[C@H]2NCCNCc2ccc(C(F)(F)F)cc2)c1 (racemic)	0.197	84	14.1
Cc1cc(N)nc(C[C@H]2CNC[C@H]2NCCNCc2ccc(F)cc2)c1 (racemic)	0.144	130	7.97
Cc1cc(N)nc(C[C@H]2CNC[C@H]2NCCNCCc2ccc(F)cc2)c1 (racemic)	0.027	18	4.6
Cc1cc(C[C@H]2CNC[C@H]2NCCNCc2ccc(Cl)cc2)cc(N)n1 (racemic)	18.8	141	232
Cc1cc(N)nc(C[C@H]2CNC[C@H]2N(C)CCNCCc2cccc(F)c2)c1 (racemic)	0.326	92.4	38.2
Nc1cccc(C[C@H]2CNC[C@H]2NC[C@H](N)Cc2ccccc2)n1 (racemic)	2.42	1450	238
Nc1cccc(C[C@H]2CNC[C@H]2NC[C@@H](N)Cc2ccccc2)n1 (racemic)	2.3	1450	297
Cc1cc(N)nc(C[C@H]2CNC[C@H]2N(C)CCNCc2ccc(Cl)cc2)c1 (racemic)	–	125	–
Nc1cccc(C[C@H]2CNC[C@H]2N[C@H]2CCNC2)n1 (racemic)	1.26	243	174
Nc1cccc(C[C@H]2CNC[C@H]2NCCNCc2ccccc2)n1 (racemic)	1.18	1450	161
Cc1cc(C[C@H]2CNC[C@H]2NCCNCCc2cccc(F)c2)cc(N)n1 (racemic)	0.551	164	10.6
Cc1cc(N)nc(C[C@H]2CNC[C@H]2N(C)CCN(C)CCc2cccc(F)c2)c1 (racemic)	1.21	48.9	56.6
CN(C)CCN[C@@H]1CNC[C@@H]1Cc1cccc(N)n1 (racemic)	3.33	140	195
